Measurements from US20120251999A1, “VITRIFICATION SYSTEMS AND METHODS” (THE BRIGHAM AND WOMEN'S HOSPITAL, INC., priority 2011, published 2012).
Several values for one entry are separate records, joined by “and”; a condition that tells them apart may be missing. Identical values can stand only once. Like-named read-outs stand apart in the source and are kept apart here.

Columns and labels:
[1] = ejected into liquid nitrogen
Source text: The experimental setup was as described in Song et al. PNAS 2010.

[2] = test system: mouse oocytes; assay: Parthenogenetic activation of oocytes using SrCl2 (cleavage and blastocyst development); type: cell-based
Description: Prior to parthenogenetic activation, oocytes were cultured in KSOM medium supplemented with 4 mg/ml BSA for 2 h to allow oocytes to recover from the previous experimental procedure. For parthenogenetic activation, oocytes were incubated in SrCl2 solution in KSOM medium at 37° C. in 5% CO2/95% air for 2 h and then washed three-times with FHM medium. Oocytes were then transferred to KSOM medium and cultured at 37° C. in 5% CO2/95% air.
To determine the optimal SrCl2 concentration to parthenogenetically activate fresh mouse oocytes, we tested four SrCl2 concentrations (10 mM, 20 mM, 50 mM and 100 mM). Over the following 6 days, treated oocytes were examined microscopically every day for embryo development to the cleavage and blastocyst stages. Day 1 is defined as 24 h after treatment. Oocytes incubated in the regular KSOM medium without SrCl2 were used as controls. To determine whether droplet encapsulation has effect on oocyte parthenogenetic activation, oocytes in FHM medium were ejected into a center well culture dish containing 400 μl of FHM medium. To minimize the effects of shear stress generated at the ejector tip when using medium instead of CPAs, the flow rate of nitrogen gas was reduced to 0.6 SLPM to obtain droplet sizes similar to those obtained at 0.8 SLPM using CPAs. Oocytes were retrieved and cultured in KSOM medium at 37° C. in 5% CO2/95% air for 2 h before parthenogenetic activation. SrCl2 solution at the concentration of 50 mM, which gave the highest cleavage and blastocyst rates with control oocytes, was used for the activation of oocytes following ejection into the medium.

[3] = 10 mM SrCl2, fresh control oocytes
[4] = 10 mM SrCl2, fresh control oocytes, 81 initiated
[5] = 20 mM SrCl2, fresh control oocytes
[6] = 20 mM SrCl2, fresh control oocytes, 82 initiated
[7] = 50 mM SrCl2, fresh control oocytes
[8] = 50 mM SrCl2, fresh control oocytes, 79 initiated
[9] = 50 mM SrCl2, oocytes after ejection with medium
[10] = 100 mM SrCl2, fresh control oocytes
[11] = 100 mM SrCl2, fresh control oocytes, 88 initiated

CC(O)CO (stereo not shown) [PrOH, 1,2-propanediol]
vitrification of droplets ([1]; 194 μm droplets, 3 M PrOH): vitrified
vitrification of droplets ([1]; 525 μm droplets, 4.5 M PrOH): non-vitrified

[Cl-].[Cl-].[Sr+2] [SrCl2]
Blastocysts developed (%) [2, 3]: 0 (0)
Oocytes cleaved (%) [2, 3]: 3.7%
Blastocysts developed (number) [2, 4]: 0 (0)
No. of Oocytes cleaved [2, 4]: 3
Blastocysts developed (%) [2, 5]: 15.9%
Oocytes cleaved (%) [2, 5]: 46.3%
Blastocysts developed (number) [2, 6]: 13
No. of Oocytes cleaved [2, 6]: 38
Blastocysts developed (%) [2, 7]: 49.4%
Oocytes cleaved (%) [2, 7]: 88.9% and 88.6%
Blastocysts developed (number) [2, 8]: 33
No. of Oocytes cleaved [2, 8]: 70
Blastocysts developed (%) [2, 9]: 26.0%
Oocytes cleaved (%) [2, 9]: 96% and 97.0%
Blastocysts developed (number) ([2]; 50 mM SrCl2, oocytes after ejection with medium, 100 initiated): 26
No. of Oocytes cleaved ([2]; 50 mM SrCl2, oocytes after encapsulation in medium droplets and ejection into medium, 100 initiated): 96
Blastocysts developed (%) [2, 10]: 2.3%
Oocytes cleaved (%) [2, 10]: 48.9%
Blastocysts developed (number) [2, 11]: 2
No. of Oocytes cleaved [2, 11]: 43
